Laboratory results as given in patent US20260092071A1, “COMPOUNDS AND COMPOSITIONS AS SMARCA2/4 DEGRADERS AND USES THEREOF” (REGENTS OF THE UNIVERSITY OF MICHIGAN, priority 2022, published 2026).
Like-named read-outs stand apart in the source and are kept apart here.

How the values were obtained:
SMARCA2 = SMARCA2 (Homo sapiens, UniProt P51531); assay: HiBiT assay for protein degradation, Hela SMARCA2-HiBiT cells (A series); assay type: cell-based; parameters: Hela cells were genetically modified via CRISPR/Cas9 to fuse HiBiT to the carboxy terminus of SMARCA2; host or cells: HeLa (CRISPR/Cas9 HiBiT knock-in); conditions: for DC50: read-out: SMARC A2 Hela HiBit DC50; for Dmax: read-out: SMARC A2 Hela HiBit Dmax (%);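 on SMARC A2 Hela HiBit Dmax (%): 24 h compound treatment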
SMARCA2, sequence (P51531 whole entry, the tested form may be a part): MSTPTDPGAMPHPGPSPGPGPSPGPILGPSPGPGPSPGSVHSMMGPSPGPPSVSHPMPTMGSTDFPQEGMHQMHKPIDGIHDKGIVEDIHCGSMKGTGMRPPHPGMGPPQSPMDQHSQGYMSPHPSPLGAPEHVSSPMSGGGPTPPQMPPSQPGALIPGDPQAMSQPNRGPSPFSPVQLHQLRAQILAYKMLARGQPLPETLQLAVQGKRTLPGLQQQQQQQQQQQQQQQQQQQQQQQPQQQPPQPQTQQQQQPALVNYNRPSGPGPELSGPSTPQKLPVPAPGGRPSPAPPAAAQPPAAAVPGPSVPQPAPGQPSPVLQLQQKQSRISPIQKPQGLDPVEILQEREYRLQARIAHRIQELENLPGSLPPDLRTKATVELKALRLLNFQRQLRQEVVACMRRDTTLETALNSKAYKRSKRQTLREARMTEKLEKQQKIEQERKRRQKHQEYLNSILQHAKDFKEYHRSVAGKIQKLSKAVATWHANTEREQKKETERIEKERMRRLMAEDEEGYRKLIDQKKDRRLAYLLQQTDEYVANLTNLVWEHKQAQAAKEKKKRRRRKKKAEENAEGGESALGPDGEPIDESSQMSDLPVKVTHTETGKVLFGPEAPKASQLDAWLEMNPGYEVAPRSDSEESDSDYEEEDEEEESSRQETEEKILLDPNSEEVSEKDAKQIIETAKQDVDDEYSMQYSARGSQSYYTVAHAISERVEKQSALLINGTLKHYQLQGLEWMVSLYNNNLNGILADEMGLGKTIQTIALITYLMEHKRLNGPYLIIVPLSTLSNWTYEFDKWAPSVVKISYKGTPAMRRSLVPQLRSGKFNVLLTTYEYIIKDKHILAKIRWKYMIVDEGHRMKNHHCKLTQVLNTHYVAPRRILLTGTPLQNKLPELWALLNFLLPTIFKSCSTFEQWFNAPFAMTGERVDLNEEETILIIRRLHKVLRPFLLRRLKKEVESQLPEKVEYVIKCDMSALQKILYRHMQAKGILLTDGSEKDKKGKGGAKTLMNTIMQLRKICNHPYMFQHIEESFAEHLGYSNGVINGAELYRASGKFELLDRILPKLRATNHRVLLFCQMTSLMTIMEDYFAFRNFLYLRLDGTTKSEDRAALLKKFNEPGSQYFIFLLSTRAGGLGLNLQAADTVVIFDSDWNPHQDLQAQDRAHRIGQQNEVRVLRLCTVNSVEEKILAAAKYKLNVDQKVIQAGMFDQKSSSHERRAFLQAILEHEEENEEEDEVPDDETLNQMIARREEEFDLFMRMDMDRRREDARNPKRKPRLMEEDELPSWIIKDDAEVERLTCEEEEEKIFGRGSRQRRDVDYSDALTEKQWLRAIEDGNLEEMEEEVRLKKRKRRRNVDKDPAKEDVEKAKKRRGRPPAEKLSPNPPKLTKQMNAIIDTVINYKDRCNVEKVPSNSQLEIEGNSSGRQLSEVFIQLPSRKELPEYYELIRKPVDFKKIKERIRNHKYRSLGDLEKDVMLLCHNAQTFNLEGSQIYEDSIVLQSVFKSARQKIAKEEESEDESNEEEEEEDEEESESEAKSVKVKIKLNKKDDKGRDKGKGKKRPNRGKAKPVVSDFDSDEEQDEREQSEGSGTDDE
Outline: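 HeLa cells engineered by CRISPR/Cas9 to carry a HiBiT tag fused to the C-terminus of SMARCA2 (Promega CS302365) were grown in DMEM supplemented with FBS and penicillin-streptomycin. After treatment, remaining SMARCA2 protein was quantified with the Nano-Glo® HiBiT Lytic Detection Assay (Promega N3050), and curves were fitted in GraphPad Prism.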

SMARCA4 = SMARCA4 (Homo sapiens, UniProt P51532); assay: HiBiT assay for protein degradation, Hela SMARCA4-HiBiT cells (A series); assay type: cell-based; parameters: fuse HiBiT to the carboxy terminus of SMARCA2 (Promega CS302365) or SMARCA4 (Promega CS3023225); host or cells: HeLa (CRISPR/Cas9 HiBiT knock-in); conditions: for DC50: read-out: SMARC A4 Hela HiBit DC50
SMARCA4, sequence (P51532 whole entry, the tested form may be a part): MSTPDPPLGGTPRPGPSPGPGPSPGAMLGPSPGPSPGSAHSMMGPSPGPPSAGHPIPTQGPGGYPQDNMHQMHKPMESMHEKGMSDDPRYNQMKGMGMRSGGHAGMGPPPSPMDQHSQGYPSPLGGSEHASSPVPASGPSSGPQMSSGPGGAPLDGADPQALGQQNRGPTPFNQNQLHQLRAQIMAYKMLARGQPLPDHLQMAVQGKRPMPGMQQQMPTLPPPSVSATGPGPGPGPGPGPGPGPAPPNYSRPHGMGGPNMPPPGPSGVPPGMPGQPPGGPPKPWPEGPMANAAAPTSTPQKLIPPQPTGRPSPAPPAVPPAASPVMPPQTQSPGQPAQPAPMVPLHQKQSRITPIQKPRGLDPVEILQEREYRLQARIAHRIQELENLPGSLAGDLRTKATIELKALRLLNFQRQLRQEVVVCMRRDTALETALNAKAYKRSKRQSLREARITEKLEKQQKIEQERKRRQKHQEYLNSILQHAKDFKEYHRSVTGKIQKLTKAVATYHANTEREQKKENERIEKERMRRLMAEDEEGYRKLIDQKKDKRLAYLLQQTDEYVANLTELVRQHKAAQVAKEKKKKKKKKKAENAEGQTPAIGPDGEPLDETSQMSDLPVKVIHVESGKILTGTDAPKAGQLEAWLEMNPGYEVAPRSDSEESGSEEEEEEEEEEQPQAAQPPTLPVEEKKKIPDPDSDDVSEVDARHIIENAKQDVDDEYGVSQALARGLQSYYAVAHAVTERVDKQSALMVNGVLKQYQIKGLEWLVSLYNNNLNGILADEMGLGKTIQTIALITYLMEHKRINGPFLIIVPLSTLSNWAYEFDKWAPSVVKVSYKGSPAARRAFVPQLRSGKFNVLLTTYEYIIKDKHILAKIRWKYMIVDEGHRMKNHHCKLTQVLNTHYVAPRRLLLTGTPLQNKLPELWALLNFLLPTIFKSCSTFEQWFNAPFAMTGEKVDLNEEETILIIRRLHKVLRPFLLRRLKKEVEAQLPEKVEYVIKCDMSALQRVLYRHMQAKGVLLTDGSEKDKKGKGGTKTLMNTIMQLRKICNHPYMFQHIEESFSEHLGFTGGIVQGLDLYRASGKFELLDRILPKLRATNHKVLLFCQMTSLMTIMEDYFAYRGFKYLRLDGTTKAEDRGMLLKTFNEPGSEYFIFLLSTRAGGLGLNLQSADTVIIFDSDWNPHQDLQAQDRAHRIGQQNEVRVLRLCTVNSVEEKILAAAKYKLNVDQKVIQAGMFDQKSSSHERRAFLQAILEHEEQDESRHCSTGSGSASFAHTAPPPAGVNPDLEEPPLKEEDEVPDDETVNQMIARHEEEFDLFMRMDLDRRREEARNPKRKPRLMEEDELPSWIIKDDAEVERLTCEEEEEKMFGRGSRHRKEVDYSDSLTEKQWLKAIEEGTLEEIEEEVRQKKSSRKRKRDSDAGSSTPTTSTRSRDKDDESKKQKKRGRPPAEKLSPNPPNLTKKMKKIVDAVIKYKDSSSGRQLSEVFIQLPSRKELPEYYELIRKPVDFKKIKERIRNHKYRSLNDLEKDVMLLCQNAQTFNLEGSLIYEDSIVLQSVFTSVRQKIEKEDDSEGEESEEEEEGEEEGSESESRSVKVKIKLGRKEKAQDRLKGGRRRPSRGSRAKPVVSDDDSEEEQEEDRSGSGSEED
Outline: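 HeLa cells engineered by CRISPR/Cas9 to carry a HiBiT tag fused to the C-terminus of SMARCA4 (Promega CS3023225) were grown in DMEM supplemented with FBS and penicillin-streptomycin. After compound exposure, remaining SMARCA4 protein was quantified using the Nano-Glo® HiBiT Lytic Detection Assay (Promega N3050), and curves were fitted in GraphPad Prism.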

[1] = Hela SMARCA2-HiBiT cells, 24 hours treatment
[2] = Hela SMARCA4-HiBiT cells, 24 hours treatment
[3] = Hela SMARCA4-HiBiT cells, 24 hours treatment, read-out: SMARC A4 Hela HiBit Dmax

| Compound | DC50 (SMARCA2; [1]) | Dmax (SMARCA2; [1]) | DC50 (SMARCA4; [2]) | Dmax (SMARCA4; [3]) | SMARC A2 Hela HiBit Dmax (%) (SMARCA2; [1]) | DC50 (SMARCA2) | SMARC A4 Hela HiBit Dmax(%) (SMARCA4; [2]) | DC50 (SMARCA4) | Dmax (SMARCA4; Hela SMARCA4-HiBiT cells, 24 hours treatment, read-out: SMARC A4 Hela HiBit Dmax(%)) |
| --- | --- | --- | --- | --- | --- | --- | --- | --- | --- |
| Cc1ccncc1-c1ccc([C@H](CN2CCOCC2)NC(=O)[C@@H]2C[C@@H](O)CN2C(=O)[C@@H](n2cc([C@H]3CC[C@H](CN4CCC(c5ccc6c(c5)-n5c(nc(=O)c7c(Cl)cccc75)C65CCCCC5)CC4)CC3)nn2)C(C)(C)C)cc1 [Compound A175] | < 10 nM | > 90% | > 1000 nM | < 50% |  |  |  |  |  |
| CC(C)(C)[C@@H](C(=O)N1C[C@H](O)C[C@H]1C(=O)N[C@@H](CN1CCOCC1)c1ccc(-c2ccccc2F)cc1)n1cc([C@H]2CC[C@H](CN3CCC(c4ccc5c(c4)-n4c(nc(=O)c6c(Cl)cccc64)C54CCCCC4)CC3)CC2)nn1 [Compound A164, (2S,4R)-1-((S)-2-(4-((1r,4S)-4-((4-(4′-chloro-5′-oxo-5′H-spiro[cyclohexane-1,7′-indolo[1,2-a]quinazolin]-10′-yl)piperidin-1-yl)methyl)cyclohexyl)-1H-1,2,3-triazol-1-yl)-3,3-dimethylbutanoyl)-N—((R)-1-(2′-fluoro-[1,1′-biphenyl]-4-yl)-2-morpholinoethyl)-4-hydroxypyrrolidine-2-carboxamide] | < 10 nM | > 90% | 100 to 1000 nM | 50 to 69% |  |  |  |  |  |
| Cc1ncsc1-c1ccc([C@H](C)NC(=O)[C@@H]2C[C@@H](O)CN2C(=O)[C@H](C2CCN(C(=O)[C@H]3CC[C@H](CN4CCC(c5ccc6c(c5)-n5c(nc(=O)c7c(Br)cccc75)C65CCCCC5)CC4)CC3)CC2)n2cc(C3CC3)nn2)cc1 [Compound A132, (2S,4R)-1-((S)-2-(1-((1r,4S)-4-((4-(4′-bromo-5′-oxo-5′H-spiro[cyclohexane-1,7′-indolo[1,2-a]quinazolin]-10′-yl)piperidin-1-yl)methyl)cyclohexane-1-carbonyl)piperidin-4-yl)-2-(4-cyclopropyl-1H-1,2,3-triazol-1-yl)acetyl)-4-hydroxy-N—((S)-1-(4-(4-methylthiazol-5-yl)phenyl)ethyl)pyrrolidine-2-carboxamide] | < 10 nM | > 90% | > 1000 nM | < 50% |  |  |  |  |  |
| Cc1ncsc1-c1ccc([C@H](C)NC(=O)[C@@H]2C[C@@H](O)CN2C(=O)[C@@H](n2cc(CCN3CCC(c4ccc5c(c4)-n4c(nc(=O)c6c(Br)cccc64)C54CCCCC4)CC3)nn2)C(C)(C)C)cc1 [Compound A48, (2S,4R)-1-((S)-2-(4-(2-(4-(4′-bromo-5′-oxo-5′H-spiro[cyclohexane-1,7′-indolo[1,2-a]quinazolin]-10′-yl)piperidin-1-yl)ethyl)-1H-1,2,3-triazol-1-yl)-3,3-dimethylbutanoyl)-4-hydroxy-N—((S)-1-(4-(4-methylthiazol-5-yl)phenyl)ethyl)pyrrolidine-2-carboxamide] |  |  |  |  | A (A (>90% degradation)) | < 100 nM | C (C (50-69% degradation)) | 100 to 500 nM |  |
| Cc1ncsc1-c1ccc([C@H](CC(=O)O)NC(=O)[C@@H]2C[C@@H](O)CN2C(=O)[C@@H](n2cc([C@H]3CC[C@H](CN4CCC(c5ccc6c(c5)-n5c(nc(=O)c7c(Cl)cccc75)C65CCCCC5)CC4)CC3)nn2)C(C)(C)C)cc1 [Compound A146, (S)-3-((2S,4R)-1-((S)-2-(4-((1r,4S)-4-((4-(4′-chloro-5′-oxo-5′H-spiro[cyclohexane-1,7′-indolo[1,2-a]quinazolin]-10′-yl)piperidin-1-yl)methyl)cyclohexyl)-1H-1,2,3-triazol-1-yl)-3,3-dimethylbutanoyl)-4-hydroxypyrrolidine-2-carboxamido)-3-(4-(4-methylthiazol-5-yl)phenyl) propanoic acid] | 10 to 100 nM | 70 to 90% | > 1000 nM | < 50% |  |  |  |  |  |
| Cc1ncsc1-c1ccc([C@H](CN2CCC(F)(F)CC2)NC(=O)[C@@H]2C[C@@H](O)CN2C(=O)[C@@H](n2cc([C@H]3CC[C@H](CN4CCC(c5ccc6c(c5)-n5c(nc(=O)c7c(Cl)cccc75)C65CCCCC5)CC4)CC3)nn2)C(C)(C)C)cc1 [Compound A75, (2S,4R)-1-((S)-2-(4-((1r,4S)-4-((4-(4′-chloro-5′-oxo-5′H-spiro[cyclohexane-1,7′-indolo[1,2-a]quinazolin]-10′-yl)piperidin-1-yl)methyl)cyclohexyl)-1H-1,2,3-triazol-1-yl)-3,3-dimethylbutanoyl)-N—((R)-2-(4,4-difluoropiperidin-1-yl)-1-(4-(4-methylthiazol-5-yl)phenyl)ethyl)-4-hydroxypyrrolidine-2-carboxamide] | < 100 nM | > 90% | > 1000 nM |  |  |  |  |  | < 50% |
| Cc1ncsc1-c1ccc([C@H](C)NC(=O)[C@@H]2C[C@@H](O)CN2C(=O)[C@@H](n2cc(CCCN3CCC(c4ccc5c(c4)-n4c(nc(=O)c6c(Br)cccc64)C54CCCCC4)CC3)nn2)C(C)(C)C)cc1 [Compound A44, (2S,4R)-1-((S)-2-(4-(3-(4-(4′-bromo-5′-oxo-5′H-spiro[cyclohexane-1,7′-indolo[1,2-a]quinazolin]-10′-yl)piperidin-1-yl)propyl)-1H-1,2,3-triazol-1-yl)-3,3-dimethylbutanoyl)-4-hydroxy-N—((S)-1-(4-(4-methylthiazol-5-yl)phenyl)ethyl)pyrrolidine-2-carboxamide] |  |  |  |  | A (A (>90% degradation)) | < 100 nM | B (B (70-90% degradation)) | < 100 nM |  |
| Cc1ncsc1-c1ccc([C@H](C)NC(=O)[C@@H]2C[C@@H](O)CN2C(=O)[C@H](C2CCN(C)CC2)n2cc([C@H]3CC[C@H](CN4CCC(c5ccc6c(c5)-n5c(nc(=O)c7c(Cl)cccc75)C65CCCCC5)CC4)CC3)nn2)cc1 [Compound A110, (2S,4R)-1-((S)-2-(4-((1r,4S)-4-((4-(4′-chloro-5′-oxo-5′H-spiro[cyclohexane-1,7′-indolo[1,2-a]quinazolin]-10′-yl)piperidin-1-yl)methyl)cyclohexyl)-1H-1,2,3-triazol-1-yl)-2-(1-methylpiperidin-4-yl)acetyl)-4-hydroxy-N—((S)-1-(4-(4-methylthiazol-5-yl)phenyl)ethyl)pyrrolidine-2-carboxamide] | 10 to 100 nM | > 90% | > 1000 nM | 50 to 69% |  |  |  |  |  |
| CC(C)(C)[C@@H](C(=O)N1C[C@H](O)C[C@H]1C(=O)N[C@@H](CN1CCOCC1)c1ccc(-c2ccncc2)cc1)n1cc([C@H]2CC[C@H](CN3CCC(c4ccc5c(c4)-n4c(nc(=O)c6c(Cl)cccc64)C54CCCCC4)CC3)CC2)nn1 [Compound A172, (2S,4R)-1-((S)-2-(4-((1r,4S)-4-((4-(4′-chloro-5′-oxo-5′H-spiro[cyclohexane-1,7′-indolo[1,2-a]quinazolin]-10′-yl)piperidin-1-yl)methyl)cyclohexyl)-1H-1,2,3-triazol-1-yl)-3,3-dimethylbutanoyl)-4-hydroxy-N—((R)-2-morpholino-1-(4-(pyridin-4-yl)phenyl)ethyl)pyrrolidine-2-carboxamide] | < 10 nM | > 90% | > 1000 nM | < 50% |  |  |  |  |  |
| Cc1ncsc1-c1ccc([C@H](CC(=O)N2CCC3(CCC(N4CCC(c5ccc6c(c5)-n5c(nc(=O)c7c(Br)cccc75)C65CCCCC5)CC4)CC3)CC2)NC(=O)[C@@H]2C[C@@H](O)CN2C(=O)[C@@H](n2cc(C3CC3)nn2)C(C)(C)C)cc1 [Compound A144, (2S,4R)—N—((S)-3-(9-(4-(4′-bromo-5′-oxo-5′H-spiro[cyclohexane-1,7′-indolo[1,2-a]quinazolin]-10′-yl)piperidin-1-yl)-3-azaspiro[5.5]undecan-3-yl)-1-(4-(4-methylthiazol-5-yl)phenyl)-3-oxopropyl)-1-((S)-2-(4-cyclopropyl-1H-1,2,3-triazol-1-yl)-3,3-dimethylbutanoyl)-4-hydroxypyrrolidine-2-carboxamide] | < 10 nM | > 90% | 10 to 100 nM | 70 to 90% |  |  |  |  |  |
| COCCOCCOCCOC[C@H](NC(=O)[C@@H]1C[C@@H](O)CN1C(=O)[C@@H](n1cc([C@H]2CC[C@H](CN3CCC(c4ccc5c(c4)-n4c(nc(=O)c6c(Cl)cccc64)C54CCCCC4)CC3)CC2)nn1)C(C)(C)C)c1ccc(-c2scnc2C)cc1 [Compound A148, (2S,4R)-1-((S)-2-(4-((1r,4S)-4-((4-(4′-chloro-5′-oxo-5′H-spiro[cyclohexane-1,7′-indolo[1,2-a]quinazolin]-10′-yl)piperidin-1-yl)methyl)cyclohexyl)-1H-1,2,3-triazol-1-yl)-3,3-dimethylbutanoyl)-4-hydroxy-N—((R)-13-(4-(4-methylthiazol-5-yl)phenyl)-2,5,8,11-tetraoxatridecan-13-yl)pyrrolidine-2-carboxamide] | < 10 nM | > 90% | > 1000 nM | 50 to 69% |  |  |  |  |  |
